Experimental data from patent publication US10226534B2, “Semi-solid delivery systems” (REGENTS OF THE UNIVERSITY OF MINNESOTA, priority 2013, dated 2019).
≈ marks a conversion by molar mass, not a printed value.

Assay: Solubilization of Nile Red in water aided by the semi-solid polymer
Assay type: physicochemical
Experimental: Nile Red (NR) is a hydrophobic molecule that is insoluble in water. 3 mg of NR solid particles suspended in 1 mL of aqueous phosphate buffered saline (PBS) without dissolving. With addition of 10% semi-solid polymer (100 mg), NR is completely solubilized in PBS to 3 mg/mL.

For `CCN(CC)c1ccc2nc3c4ccccc4c(=O)cc-3oc2c1` [Nile Red], which solubility (PBS with 10% semi-solid polymer, aqueous with cosolvent or surfactant or cyclodextrin, thermodynamic from solid, with addition of 10% semi-solid polymer (100 mg in 1 mL PBS)) is on record?
Its solubility is 3000 µg/mL (≈ 9.42 mM).

What about the Solubility in water (without polymer) of the same molecule?
The Solubility in water was “insoluble”.
